One test concerns the target T1, human H3 receptor (Homo sapiens, UniProt Q9Y5N1).
T1 construct: expressed in transfected cells
The test is described as follows: H3 receptor binding (N-[3H]-α-methylhistamine displacement). The following applies: membranes of SK-N-MC cells expressing cloned human H3 receptor, 0.8 nM N-[3H]-α-methylhistamine, 60 min at 25° C.

A further test concerns the target T2, Rat SERT (Rattus norvegicus, UniProt P31652).
T2 construct: A rat brain without cerebellum (Zivic Laboratories, Inc.—Pittsburgh, Pa.) was homogenized; tissue Zivic Laboratories, Inc; host or cells: rat brain without cerebellum, membranes
The test is described as follows: Rat brain SERT binding ([3H]-citalopram displacement). The following applies: rat brain membranes without cerebellum, 0.6 nM [3H]-citalopram, 60 min at 25° C. On the procedure:
The supernatant was removed and re-centrifuged at 15,000 rpm for 30 min. […] Membranes were incubated with 0.6 nM [^3H]-Citalopram plus/minus test compounds for 60 min at 25° C. and harvested by rapid filtration over GF/C glass fiber filters (pretreated with 0.3% polyethylenimine) followed by four washes with ice-cold buffer.

SMILES strings stand for the structures. Where two headings read alike, the source gives them in different places.

T2 sequence (P31652 whole entry): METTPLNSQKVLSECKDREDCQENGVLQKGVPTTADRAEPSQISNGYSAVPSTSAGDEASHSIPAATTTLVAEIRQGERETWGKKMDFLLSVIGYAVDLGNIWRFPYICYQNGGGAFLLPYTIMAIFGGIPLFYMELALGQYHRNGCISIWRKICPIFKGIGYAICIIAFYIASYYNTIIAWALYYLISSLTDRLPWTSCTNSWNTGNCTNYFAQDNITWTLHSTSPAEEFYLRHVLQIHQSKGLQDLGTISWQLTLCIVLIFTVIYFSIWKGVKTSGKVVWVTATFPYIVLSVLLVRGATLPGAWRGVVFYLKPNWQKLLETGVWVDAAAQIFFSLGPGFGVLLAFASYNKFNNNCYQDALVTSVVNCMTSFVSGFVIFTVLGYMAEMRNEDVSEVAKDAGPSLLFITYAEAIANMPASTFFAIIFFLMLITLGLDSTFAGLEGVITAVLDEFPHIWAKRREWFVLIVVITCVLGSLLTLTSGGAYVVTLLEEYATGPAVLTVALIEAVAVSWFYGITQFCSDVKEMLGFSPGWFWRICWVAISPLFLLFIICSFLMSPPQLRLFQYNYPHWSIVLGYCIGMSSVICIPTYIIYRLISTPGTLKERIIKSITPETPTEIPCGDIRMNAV
T1 sequence (Q9Y5N1 whole entry): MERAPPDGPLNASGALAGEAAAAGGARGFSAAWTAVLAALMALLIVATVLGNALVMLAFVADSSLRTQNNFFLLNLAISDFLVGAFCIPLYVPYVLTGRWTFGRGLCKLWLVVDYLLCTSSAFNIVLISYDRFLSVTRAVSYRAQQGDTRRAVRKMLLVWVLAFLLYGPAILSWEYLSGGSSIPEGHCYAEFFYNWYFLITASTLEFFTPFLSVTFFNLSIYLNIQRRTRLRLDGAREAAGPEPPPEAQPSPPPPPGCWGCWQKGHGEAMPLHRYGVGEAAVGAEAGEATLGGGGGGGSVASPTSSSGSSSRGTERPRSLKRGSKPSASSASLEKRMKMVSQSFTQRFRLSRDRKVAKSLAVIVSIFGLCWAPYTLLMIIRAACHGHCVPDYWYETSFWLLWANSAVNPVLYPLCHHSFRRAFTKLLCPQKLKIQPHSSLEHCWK

`COc1ccc(C2CN(C)Cc3cc(OCCCNC(C4CC4)C4CC4)ccc32)cc1` (stereo not shown) [Example 131, Dicyclopropylmethyl-{3-[4-(4-methoxy-phenyl)-2-methyl-1,2,3,4-tetrahydro-isoquinolin-7-yloxy]-propyl}-amine]: the figures for the Ki at human H3 receptor and on Rat SERT (read-out: Rat SERT Ki) were 85 nM and 9 nM, respectively.
In the same order, the values of `COc1ccc(C2CN(C)Cc3cc(OCCCN4CCN(c5nccs5)CC4)ccc32)cc1` (stereo not shown) [Example 200, 4-(4-Methoxy-phenyl)-2-methyl-7-[3-(4-thiazol-2-yl-piperazin-1-yl)-propoxy]-1,2,3,4-tetrahydro-isoquinoline] are 227 nM and 3 nM.
In the same order, the values of `CCN1CCC(COc2ccc3c(c2)CN(C)CC3c2ccc(OC)cc2)CC1` (stereo not shown) [Example 87, 7-(1-Ethyl-piperidin-4-ylmethoxy)-4-(4-methoxy-phenyl)-2-methyl-1,2,3,4-tetrahydro-isoquinoline] are 2 nM and 4 nM.
Regarding `COc1ccc(C2CN(C)Cc3cc(OCC4CCN(C5CCC5)CC4)ccc32)cc1` (stereo not shown) [Example 248, 7-(1-Cyclobutyl-piperidin-4-ylmethoxy)-4-(4-methoxy-phenyl)-2-methyl-1,2,3,4-tetrahydro-isoquinoline], the Ki – broadly, a dissociation constant, usually derived from enzyme kinetics or from competition with a known ligand – is 5 nM on human H3 receptor and 7 nM at Rat SERT (read-out: Rat SERT Ki).
For the compound `CN1Cc2cc(OCCCN3CCC(F)CC3)ccc2C(c2ccc(Cl)cc2Cl)C1` (stereo not shown) [Example 54, 4-(2,4-Dichloro-phenyl)-7-[3-(4-fluoro-piperidin-1-yl)-propoxy]-2-methyl-1,2,3,4-tetrahydro-isoquinoline], the Ki on human H3 receptor is 16 nM; on Rat SERT (Rat SERT Ki (nM)), 32 nM.
As to `COc1cccc(C2CN(C)Cc3cc(OC4CCN(C(C)C)CC4)ccc32)c1` (stereo not shown) [Example 98, 7-(1-Isopropyl-piperidin-4-yloxy)-4-(3-methoxy-phenyl)-2-methyl-1,2,3,4-tetrahydro-isoquinoline], the Ki on human H3 receptor was determined as 2 nM; on Rat SERT (read-out: Rat SERT Ki), 11 nM.
In the same order, the values of `COc1ccc(C2CN(C)Cc3cc(OCCCNCC(C)C)ccc32)cc1` (stereo not shown) [Example 228, Isobutyl-{3-[4-(4-methoxy-phenyl)-2-methyl-1,2,3,4-tetrahydro-isoquinolin-7-yloxy]-propyl}-amine] are 38 nM and 1 nM.
As to `COc1ccc(C2CN(C)Cc3cc(OCC4CCN(C(C)C)CC4)ccc32)cc1Cl` (stereo not shown) [Example 88, 4-(3-Chloro-4-methoxy-phenyl)-7-(1-isopropyl-piperidin-4-ylmethoxy)-2-methyl-1,2,3,4-tetrahydro-isoquinoline], the values for the Ki on human H3 receptor and at Rat SERT (read-out: Rat SERT Ki) were 3 nM and 15 nM, respectively.
In the same order, the values of `COc1ccc(C2CN(C)Cc3cc(OCCCN4CCC(C(F)(F)F)CC4)ccc32)cc1` (stereo not shown) [Example 38, 4-(4-Methoxy-phenyl)-2-methyl-7-[3-(4-trifluoromethyl-piperidin-1-yl)-propoxy]-1,2,3,4-tetrahydro-isoquinoline] are 38 nM and 29 nM.
The like results for `C[C@H]1COCCN1CCCOc1ccc2c(c1)CN(C)CC2c1ccc(N2CCOCC2)cc1` (stereo partly drawn) [Example 133, 2-Methyl-7-[3-(3S-methyl-morpholin-4-yl)-propoxy]-4-(4-morpholin-4-yl-phenyl)-1,2,3,4-tetrahydro-isoquinoline] were, in that order, 2 nM and 50 nM.
Regarding `COc1ccc(C2CN(C)Cc3cc(OCC4CCN(CC(F)(F)F)CC4)ccc32)cc1` (stereo not shown) [Example 123, 4-(4-Methoxy-phenyl)-2-methyl-7-[1-(2,2,2-trifluoro-ethyl)-piperidin-4-ylmethoxy]-1,2,3,4-tetrahydroisoquinoline], the Ki at human H3 receptor is 346 nM; at Rat SERT (read-out: Rat SERT Ki) it was 18 nM.
Consider `CSc1ccc(C2CN(C)Cc3cc(OC4CCN(CCC(F)(F)F)CC4)ccc32)cc1` (stereo not shown) [Example 244, 2-Methyl-4-(4-methylsulfanyl-phenyl)-7-[1-(3,3,3-trifluoro-propyl)-piperidin-4-yloxy]-1,2,3,4-tetrahydro-isoquinoline], for which the Ki is 129 nM at human H3 receptor and 7 nM at Rat SERT (read-out: Rat SERT Ki).
In the same order, the values of `COc1ccc(C2CN(C)Cc3cc(OCC4CCN(C5CC5)CC4)ccc32)cc1` (stereo not shown) [Example 249, 7-(1-Cyclopropyl-piperidin-4-ylmethoxy)-4-(4-methoxy-phenyl)-2-methyl-1,2,3,4-tetrahydro-isoquinoline] are 4 nM and 6 nM.
As for `COc1cccc(C2CN(C)Cc3cc(OCC4CCN(C5CCCC5)CC4)ccc32)c1` (stereo not shown) [Example 94, 7-(1-Cyclopentyl-piperidin-4-ylmethoxy)-4-(3-methoxy-phenyl)-2-methyl-1,2,3,4-tetrahydro-isoquinoline], the Ki was 4 nM at human H3 receptor and 15 nM at Rat SERT (read-out: Rat SERT Ki).
For `COc1ccc(C2CN(C)Cc3cc(OCCCN4CCC(F)CC4)ccc32)cc1F` (single isomer, unassigned) [Example 144, 4-(3-Fluoro-4-methoxy-phenyl)-7-[3-(4-fluoro-piperidin-1-yl)-propoxy]-2-methyl-1,2,3,4-tetrahydro-isoquinoline], the inhibitory constant (Ki) on human H3 receptor was found to be 6 nM; on Rat SERT (read-out: Rat SERT Ki), 5 nM.
The like results for `COc1ccc(C2CN(C)Cc3cc(OCCCNC4CC4)ccc32)cc1` (stereo not shown) [Example 229, Cyclopropyl-{3-[4-(4-methoxy-phenyl)-2-methyl-1,2,3,4-tetrahydro-isoquinolin-7-yloxy]-propyl}-amine] were, in that order, 18 nM and 2 nM.
The like results for `CN1Cc2cc(OCCCN3CCC(F)CC3)ccc2C(c2ccc(N(C)C)nc2)C1` (stereo not shown) [Example 188, (5-{7-[3-(4-Fluoro-piperidin-1-yl)-propoxy]-2-methyl-1,2,3,4-tetrahydro-isoquinolin-4-yl}-pyridin-2-yl)-dimethyl-amine] were, in that order, 22 nM and 37 nM.
In the same order, the values of `CN1Cc2cc(OCCCN3CCC(F)CC3)ccc2C(c2ccc(-n3cccn3)nc2)C1` (stereo not shown) [Example 194, 7-[3-(4-Fluoro-piperidin-1-yl)-propoxy]-2-methyl-4-(6-pyrazol-1-yl-pyridin-3-yl)-1,2,3,4-tetrahydro-isoquinoline] are 1 nM and 7 nM.
In the case of `COc1ccc(C2CN(C)Cc3cc(OCCCN4CCOCC4)c(C)cc32)cc1F` (stereo not shown) [Example 267, 4-(3-Fluoro-4-methoxy-phenyl)-2,6-dimethyl-7-(3-morpholin-4-yl-propoxy)-1,2,3,4-tetrahydro-isoquinoline], the values for the inhibition constant Ki on human H3 receptor and at Rat SERT (read-out: Rat SERT Ki) were 12 nM and 25 nM, respectively.
In the same order, the values of `COc1ccc(C2CN(C)Cc3cc(OCC4CN(CCF)CCO4)ccc32)cc1` (mixture of isomers) [Example 258, 7-[4-(2-Fluoro-ethyl)-morpholin-2-ylmethoxy]-4-(4-methoxy-phenyl)-2-methyl-1,2,3,4-tetrahydro-isoquinoline] are 32 nM and 8 nM.
In the same order, the values of `COc1cccc(C2CN(C)Cc3cc(OC4CCNCC4)ccc32)c1` (stereo not shown) [Example 96, 4-(3-Methoxy-phenyl)-2-methyl-7-(piperidin-4-yloxy)-1,2,3,4-tetrahydro-isoquinoline] are 182 nM and 14 nM.
In the same order, the values of `COc1ccc(C2CN(C)Cc3cc(OCCCN4CCN(CC5OCCO5)CC4)ccc32)cc1` (stereo not shown) [Example 207, 7-[3-(4-[1,3]-Dioxolan-2-ylmethyl-piperazin-1-yl)-propoxy]-4-(4-methoxy-phenyl)-2-methyl-1,2,3,4-tetrahydro-isoquinoline] are 78 nM and 15 nM.
As for `COc1ccc(C2CN(C)Cc3cc(OCCCN4CCOC(CO)C4)ccc32)cc1` (stereo not shown) [Example 184, (4-{3-[4-(4-Methoxy-phenyl)-2-methyl-1,2,3,4-tetrahydro-isoquinolin-7-yloxy]-propyl}-morpholin-2-yl)-methanol], the inhibition constant Ki was 2 nM on human H3 receptor and 1 nM at Rat SERT (read-out: Rat SERT Ki).
Regarding `COc1ccc(C2CN(C)Cc3cc(OC4CCN(CC#N)CC4)ccc32)cc1` (stereo not shown) [Example 242], the results for the Ki on human H3 receptor and on Rat SERT (read-out: Rat SERT Ki) were 124 nM and 6 nM, respectively.
In the same order, the values of `COc1ccc(C2CN(C)Cc3cc(OCC4CCN(C5CCC5)CC4)ccc32)cc1F` (stereo not shown) [Example 111, 7-(1-Cyclobutyl-piperidin-4-ylmethoxy)-4-(3-fluoro-4-methoxy-phenyl)-2-methyl-1,2,3,4-tetrahydro-isoquinoline] are 8 nM and 4 nM.
`CSc1ccc(C2CN(C)Cc3cc(OCCCN4CCOCC4)c(C)cc32)cc1` (stereo not shown) [Example 173, 2,6-Dimethyl-4-(4-methylsulfanyl-phenyl)-7-(3-morpholin-4-yl-propoxy)-1,2,3,4-tetrahydro-isoquinoline]: the values for the inhibition constant (Ki) at human H3 receptor and on Rat SERT (read-out: Rat SERT Ki) were 15 nM and 18 nM, respectively.
Regarding `COc1ccc(C2CN(C)Cc3c2ccc(OCCCN2CCOCC2)c3C)cc1F` (stereo not shown) [Example 268, 4-(3-Fluoro-4-methoxy-phenyl)-2,8-dimethyl-7-(3-morpholin-4-yl-propoxy)-1,2,3,4-tetrahydro-isoquinoline], the results for the Ki on human H3 receptor and at Rat SERT (read-out: Rat SERT Ki) were 18 nM and 12 nM, respectively.
For the compound `COc1ccc(C2CN(C)Cc3cc(OCCCNCCCO)ccc32)cc1` (stereo not shown) [Example 226, 3-{3-[4-(4-Methoxy-phenyl)-2-methyl-1,2,3,4-tetrahydro-isoquinolin-7-yloxy]-propylamino}-propan-1-ol], the Ki at human H3 receptor came out at 107 nM; at Rat SERT (read-out: Rat SERT Ki), 1 nM.
In the same order, the values of `COc1ccc(C2CN(C)Cc3cc(OCCCN4CCC(F)CC4)ccc32)cn1` (stereo not shown) [Example 193, 7-[3-(4-Fluoro-piperidin-1-yl)-propoxy]-4-(6-methoxy-pyridin-3-yl)-2-methyl-1,2,3,4-tetrahydro-isoquinoline] are 3 nM and 5 nM.

Source of the values: US20060194837A1, “Tetrahydroisoquinoline compounds” (priority 2004, published 2006).
